According to patent US11564394B2, “Distorted gold (I)-phosphine complexes and methods for use as antifungal agents” (University of Kentucky Research Foundation, priority 2019, dated 2023):
≈ marks a conversion by molar mass, not a printed value.

Columns and labels:
[1] = tested on: C. krusei ATCC 6258 (strain I); assay: MIC determination (broth microdilution); assay type: cell-based; settings: strain I = C. krusei ATCC 6258; MIC-0; 48 h; listed as split over r16 and r17 (r17 printed beside letter J)
[2] = tested on: C. neoformans CN2 (strain O); assay: MIC determination (broth microdilution); assay type: cell-based, Cryptococcus neoformans; settings: MIC-0, 72 h at 35° C.
[3] = tested on: C. albicans ATCC 10231 (strain B) pre-formed biofilm; assay: Disruption of pre-formed biofilm (XTT); assay type: cell-based, Candida albicans
[4] = tested on: C. auris AR Bank # 0387 (strain VI); assay: MIC determination (broth microdilution); assay type: cell-based, Candida auris; settings: strain VI = C. auris AR Bank # 0387; MIC-0; 48 h (CAS read at 24 h)
[5] = tested on: C. albicans ATCC 64124(R) (strain F); assay type: cell-based, Candida albicans; settings: strain F = C. albicans ATCC 64124(R); MIC-0; 48 h; listed as printed beside letter G
[6] = tested on: C. albicans ATCC MYA-2310(S) (strain D); assay: MIC determination (broth microdilution); assay type: cell-based, Candida albicans; settings: strain D = C. albicans ATCC MYA-2310(S); MIC-0; 48 h; listed as printed beside letter E
[7] = tested on: C. glabrata ATCC 2001 (strain H); assay: MIC determination (broth microdilution); assay type: cell-based, Candida glabrata; settings: strain H = C. glabrata ATCC 2001; MIC-0; 48 h at 35° C.
[8] = tested on: fungal strains (Candida spp., Cryptococcus spp., Aspergillus spp., Fusarium spp.); assay: MIC determination, summary statements over the strain panel; assay type: cell-based; settings: all filamentous fungi, Aspergillus spp. and Fusarium spp.
[9] = tested on: C. auris AR Bank # 0389 (strain VIII); assay: MIC determination (broth microdilution); assay type: cell-based, Candida auris; settings: strain VIII = C. auris AR Bank # 0389; MIC-0; 48 h (CAS read at 24 h)
[10] = tested on: C. albicans ATCC MYA-1003(R) (strain A); assay type: cell-based, Candida albicans; settings: strain A = C. albicans ATCC MYA-1003(R); MIC-0; 48 h at 35° C.
[11] = tested on: A. flavus ATCC MYA-3631 (strain S); assay: MIC determination (broth microdilution); assay type: cell-based, Aspergillus flavus; settings: strain S = A. flavus ATCC MYA-3631; MIC-0; 72 h at 35° C.
[12] = tested on: C. auris AR Bank # 0384 (strain K) pre-formed biofilm; assay type: cell-based, Candida auris; settings: biofilm treated at 24 h, XTT
[13] = tested on: C. auris AR Bank # 0385 (strain IV); assay: MIC determination (broth microdilution); assay type: cell-based, Candida auris; settings: strain IV = C. auris AR Bank # 0385; MIC-0; 48 h (CAS read at 24 h)
[14] = tested on: C. auris AR Bank # 0384 (strain K); assay: MIC determination (broth microdilution); assay type: cell-based, Candida auris; settings: strain K = C. auris AR Bank # 0384; MIC-0; 48 h (CAS read at 24 h); Table 1; also in Table 2
[15] = tested on: C. auris AR Bank # 0390 (strain L) pre-formed biofilm; assay type: cell-based, Candida auris; settings: biofilm treated at 24 h, XTT

C[C@@H]1[C@H](O)[C@@H](C)/C=C/C=C/C=C/C=C/C=C/C=C/C=C/[C@H](O[C@@H]2O[C@H](C)[C@@H](O)[C@H](N)[C@@H]2O)C[C@@H]2O[C@](O)(C[C@@H](O)C[C@@H](O)[C@H](O)CC[C@@H](O)C[C@@H](O)CC(=O)O[C@H]1C)C[C@H](O)[C@H]2C(=O)O [AmB, amphotericin B, reference compound]
MIC [1]: 3.9 µg/mL (≈ 4.22 µM) | MIC (in parentheses) [1]: 4.2 µM (≈ 3.88 µg/mL) | MIC [2]: 1.95 µg/mL (≈ 2.11 µM) | MIC (in parentheses) [2]: 2.1 µM (≈ 1.94 µg/mL) | SMIC90 of pre-formed biofilm relative to MIC with planktonic cells [3]: 32 fold | Pre-formed biofilm SMIC90 ([3]; biofilm treated at 24 h, XTT): 31.3 µg/mL | MIC [4]: 1.95 µg/mL (≈ 2.11 µM) | MIC (in parentheses) [4]: 2.1 µM (≈ 1.94 µg/mL) | MIC [5]: 3.9 µg/mL (≈ 4.22 µM) | MIC (in parentheses) [5]: 4.2 µM (≈ 3.88 µg/mL) | MIC [6]: 7.8 µg/mL (≈ 8.44 µM) | MIC (in parentheses) [6]: 8.4 µM (≈ 7.76 µg/mL) | MIC [7]: 3.9 µg/mL (≈ 4.22 µM) | MIC (in parentheses) [7]: 4.2 µM (≈ 3.88 µg/mL) | MIC values (range) [8]: 7.8 to 31.3 µg/mL | MIC [9]: 1.95 µg/mL (≈ 2.11 µM) | MIC (in parentheses) [9]: 2.1 µM (≈ 1.94 µg/mL) | MIC [10]: 0.98 µg/mL (≈ 1.06 µM) | MIC (in parentheses) [10]: 1.1 µM (≈ 1.02 µg/mL) | MIC [11]: 31.3 µg/mL (≈ 33.9 µM) | MIC (in parentheses) [11]: 33.8 µM (≈ 31.2 µg/mL) | Pre-formed biofilm SMIC90 [12]: 1.95 µg/mL | MIC [13]: 1.95 µg/mL (≈ 2.11 µM) | MIC (in parentheses) [13]: 2.1 µM (≈ 1.94 µg/mL) | MIC [14]: 1.95 µg/mL (≈ 2.11 µM) | MIC (in parentheses) [14]: 2.1 µM (≈ 1.94 µg/mL) | Pre-formed biofilm SMIC90 [15]: 7.8 µg/mL
